Literature values in patent US20020052320A1, “Sustained peptide-release formulation” (Peptech Limited, priority 1996, published 2002).

Legend:
[1] = test system: advanced prostatic cancer; settings: monthly subcutaneous injections
[2] = test system: prostate cancer in rats; settings: controlled dose over 30 days vs equivalent or double doses of free peptide

CC(C)C[C@H](NC(=O)[C@@H](COC(C)(C)C)NC(=O)[C@H](Cc1ccc(O)cc1)NC(=O)[C@H](CO)NC(=O)[C@H](Cc1c[nH]c2ccccc12)NC(=O)[C@H](Cc1cnc[nH]1)NC(=O)[C@@H]1CCC(=O)N1)C(=O)N[C@@H](CCCNC(=N)N)C(=O)N1CCC[C@H]1C(=O)NNC(N)=O [goserelin, 3-[5-oxo-L-prolyl-L-tryptophyl-L-seryl-L-tyrosyl-(3-O-tert-butyl)-D-seryl-L-1eucyl-L-arginyl-L-prolyl]cabazamide acetate]
efficacy compared with orchiectomy [1]: as effective as orchiectomy | tolerability [1]: well tolerated

CC(C)C[C@H](NC(=O)[C@@H](Cc1c[nH]c2ccccc12)NC(=O)[C@H](Cc1ccc(O)cc1)NC(=O)[C@H](CO)NC(=O)[C@H](Cc1c[nH]c2ccccc12)NC(=O)[C@H](Cc1c[nH]cn1)NC(=O)[C@@H]1CCC(=O)N1)C(=O)N[C@@H](CCCNC(=N)N)C(=O)N1CCC[C@H]1C(=O)NCC(N)=O [triptorelin, 5-oxo-L-prolyl-L-histidyl-L-tryptophyl-L-seryl-L-tyrosyl-D-tryptophyl-L-leucyl-L-arginyl-L-prolylglycinamide]
suppression of prostate tumour weight, microencapsulated form vs daily subcutaneous free peptide [2]: more effective | suppression of serum testosterone levels, microencapsulated form vs daily subcutaneous free peptide [2]: more effective
